Experimental data: patent US11584763B2, “Chromenopyridine derivatives as phosphatidylinositol phosphate kinase inhibitors” (HIBERCELL, INC., priority 2017, dated 2023)

Assays:
PIP4K2B = biological target: T1, PIP4K2B (Homo sapiens, UniProt P78356); experiment: Trans-FI P kinase assay PIP4K2B (PIP4KtypeIIB inhibition assay); type: biochemical; details: compounds listed under IC50 bin headings; 100 uM GTP; read-out: Trans-FI P kinase assays: PIP4K2B IC50
T1 construct: made in house; host or cells: E. coli
T1 sequence (P78356 1-416): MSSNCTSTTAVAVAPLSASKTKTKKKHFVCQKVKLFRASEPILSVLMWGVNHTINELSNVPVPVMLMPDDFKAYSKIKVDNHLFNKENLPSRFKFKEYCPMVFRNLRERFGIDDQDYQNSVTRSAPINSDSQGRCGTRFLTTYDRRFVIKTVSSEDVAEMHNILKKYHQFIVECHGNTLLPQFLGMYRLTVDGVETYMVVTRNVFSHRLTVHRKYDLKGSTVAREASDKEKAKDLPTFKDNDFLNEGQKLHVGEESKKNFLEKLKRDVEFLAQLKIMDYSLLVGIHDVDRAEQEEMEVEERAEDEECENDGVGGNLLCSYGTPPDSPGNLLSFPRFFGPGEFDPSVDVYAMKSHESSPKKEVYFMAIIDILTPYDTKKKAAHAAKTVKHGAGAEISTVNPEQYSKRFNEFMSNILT
Method in brief: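 GST-tagged human PIP4K2B (5 nM, E. coli-expressed) preincubated 1 h at 27 C with compound (top 4.8 uM, 5% DMSO), then reacted 2 h with 100 uM GTP and 80 uM PI5P/DOPE vesicles in HEPES pH 7.3, MgCl2, Triton X-100. GDP detected by Transcreener FI fluorescence via calibration curve; IC50 from % activity vs log[inhibitor].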

PIP4K 2A = biological target: T2, PIP4K 2A (Homo sapiens, UniProt P48426); experiment: ADP-glo kinase assay PIP4K 2A; type: biochemical; parameters: 4 nM PIP4K2A (full length protein, SignalChem); purchased SignalChem; details: compounds listed under IC50 bin headings
T2 sequence (P48426 1-406): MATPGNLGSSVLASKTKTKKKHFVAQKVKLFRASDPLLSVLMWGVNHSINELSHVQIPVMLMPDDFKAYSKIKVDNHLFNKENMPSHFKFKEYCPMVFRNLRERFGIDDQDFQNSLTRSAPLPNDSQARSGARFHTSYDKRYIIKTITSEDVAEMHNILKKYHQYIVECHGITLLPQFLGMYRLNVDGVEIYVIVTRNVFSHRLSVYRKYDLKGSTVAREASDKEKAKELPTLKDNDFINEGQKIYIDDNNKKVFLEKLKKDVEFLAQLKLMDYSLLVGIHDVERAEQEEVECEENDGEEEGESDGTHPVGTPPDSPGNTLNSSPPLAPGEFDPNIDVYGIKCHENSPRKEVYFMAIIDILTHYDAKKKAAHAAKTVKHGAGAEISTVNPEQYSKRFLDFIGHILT
Method in brief: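 Full-length PIP4K2A was pre-incubated 15 min at RT with compound in 20 mM MOPS pH 7.2, 25 mM MgCl2, 0.005% Tween 20. The enzyme mix held 4 nM kinase and 100 μM PI(5)P diC8, and ATP was added from a 60 μM solution. After 1 h at RT, ADP-Glo luminescence gave % inhibition versus DMSO, fitted to IC50 over 10 threefold dilutions.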

Structure (SMILES)	IC50 (PIP4K2B) [µM]	IC50 (PIP4K 2A) [µM]
CC1Oc2cc(N3CCCC3=O)c(F)cc2-c2cnc(Nc3cnc4c(c3)N3C(=O)C5(CC5)C[C@H]3CO4)cc21 (stereo partly drawn) [Example 154, (6a′S)-2′-((9-fluoro-5-methyl-8-(2-oxopyrrolidin-1-yl)-5H-chromeno[4,3-c]pyridin-3-yl)amino)-6a′,7′-dihydro-6′H,9′H-spiro[cyclopropane-1,8′-pyrido[2,3-b]pyrrolo[1,2-d][1,4]oxazin]-9′-one]	0.001 to 0.01	≤ 0.001
CC1C[C@H]2COc3ncc(Nc4cc5c(cn4)-c4ccc(N6CCCC6=O)cc4OC5C)cc3N2C1=O (stereo partly drawn) [Example 155, (6aS)-8-methyl-2-((5-methyl-8-(2-oxopyrrolidin-1-yl)-5H-chromeno[4,3-c]pyridin-3-yl)amino)-6,6a,7,8-tetrahydro-9H-pyrido[2,3-b]pyrrolo[1,2-d][1,4]oxazin-9-one]	0.001 to 0.01	≤ 0.001
CC1Oc2cc(N3CCCC3=O)ccc2-c2cnc(Nc3cnc4c(c3)N3C(=O)C(C)(C)C[C@H]3CO4)cc21 (stereo partly drawn) [Example 156, (6aS)-8,8-dimethyl-2-((5-methyl-8-(2-oxopyrrolidin-1-yl)-5H-chromeno[4,3-c]pyridin-3-yl)amino)-6,6a,7,8-tetrahydro-9H-pyrido[2,3-b]pyrrolo[1,2-d][1,4]oxazin-9-one]	0.001 to 0.01	≤ 0.001
CC1Oc2cc(N3CCCC3=O)ccc2-c2cnc(Nc3cnc4c(c3)N3C(=O)C5(CC5)C[C@H]3CO4)cc21 (stereo partly drawn) [Example 157, (6a′S)-2′-((5-methyl-8-(2-oxopyrrolidin-1-yl)-5H-chromeno[4,3-c]pyridin-3-yl)amino)-6a′,7′-dihydro-6′H,9′H-spiro[cyclopropane-1,8′-pyrido[2,3-b]pyrrolo[1,2-d][1,4]oxazin]-9′-one]	0.001 to 0.01	≤ 0.001
CC1Oc2cc(N3CCCC3=O)ccc2-c2cnc(Nc3cnc4c(c3)N3C(=O)OC[C@H]3CO4)cc21 (stereo partly drawn) [Example 158, (3aR)-8-((5-methyl-8-(2-oxopyrrolidin-1-yl)-5H-chromeno[4,3-c]pyridin-3-yl)amino)-3a,4-dihydro-1H,3H-oxazolo[3,4-d]pyrido[2,3-b][1,4]oxazin-1-one]	0.001 to 0.01	≤ 0.001
CC1Oc2cc(N3CCCC3=O)c(F)cc2-c2cnc(Nc3cnc4c(c3)N3C(=O)OC[C@H]3CO4)cc21 (stereo partly drawn) [Example 159, (3aR)-8-((9-fluoro-5-methyl-8-(2-oxopyrrolidin-1-yl)-5H-chromeno[4,3-c]pyridin-3-yl)amino)-3a,4-dihydro-1H,3H-oxazolo[3,4-d]pyrido[2,3-b][1,4]oxazin-1-one]	0.001 to 0.01	≤ 0.001
O=C1CCCN1c1ccc2c(c1)OCc1cc(Nc3cncc(N4CCNC4=O)c3)ncc1-2 [Example 160, 1-(5-((8-(2-oxopyrrolidin-1-yl)-5H-chromeno[4,3-c]pyridin-3-yl)amino)pyridin-3-yl)imidazolidin-2-one]	0.01 to 0.1	0.001 to 0.01
O=C1NCCN1c1cncc(Nc2cc3c(cn2)-c2cc(F)c(N4CCCC4=O)cc2OC3)c1 [Example 161, 1-(5-((9-fluoro-8-(2-oxopyrrolidin-1-yl)-5H-chromeno[4,3-c]pyridin-3-yl)amino)pyridin-3-yl)imidazolidin-2-one]	0.01 to 0.1	0.001 to 0.01
CC1(C)Oc2cc(N3CCCC3=O)ccc2-c2cnc(Nc3cncc(N4CCNC4=O)c3)cc21 [Example 162, 1-(5-((5,5-dimethyl-8-(2-oxopyrrolidin-1-yl)-5H-chromeno[4,3-c]pyridin-3-yl)amino)pyridin-3-yl)imidazolidin-2-one]	0.01 to 0.1	0.001 to 0.01
O=C1CCCN1c1ccc2c(c1)OCc1cc(Nc3cnc4c(c3)OCCO4)ncc1-2 [Example 163, 1-(3-((2,3-dihydro-[1,4]dioxino[2,3-b]pyridin-7-yl)amino)-5H-chromeno[4,3-c]pyridin-8-yl)pyrrolidin-2-one]	0.01 to 0.1	0.001 to 0.01
O=C1CCCN1c1cc2c(cc1F)-c1cnc(Nc3cnc4c(c3)OCCO4)cc1CO2 [Example 165, 1-(3-((2,3-dihydro-[1,4]dioxino[2,3-b]pyridin-7-yl)amino)-9-fluoro-5H-chromeno[4,3-c]pyridin-8-yl)pyrrolidin-2-one]	0.01 to 0.1	0.01 to 0.1
CC1Oc2cc(N3CCCC3=O)c(F)cc2-c2cnc(Nc3cnc4c(c3)OCCO4)cc21 (stereo not drawn) [Example 166, 1-(3-((2,3-dihydro-[1,4]dioxino[2,3-b]pyridin-7-yl)amino)-9-fluoro-5-methyl-5H-chromeno[4,3-c]pyridin-8-yl)pyrrolidin-2-one]	0.01 to 0.1	0.001 to 0.01
COCCC(=O)N1CCN(c2cncc(Nc3cc4c(cn3)-c3ccc(N5CCCC5=O)cc3OC4)c2)CC1 [Example 168, 1-(3-((5-(4-(3-methoxypropanoyl)piperazin-1-yl)pyridin-3-yl)amino)-5H-chromeno[4,3-c]pyridin-8-yl)pyrrolidin-2-one]	0.01 to 0.1	0.01 to 0.1
COCCC(=O)N1CCN(c2cncc(Nc3cc4c(cn3)-c3ccc(N5CCCC5=O)cc3OC4C)c2)CC1 (stereo not drawn) [Example 169, 1-(3-((5-(4-(3-methoxypropanoyl)piperazin-1-yl)pyridin-3-yl)amino)-5-methyl-5H-chromeno[4,3-c]pyridin-8-yl)pyrrolidin-2-one]	0.01 to 0.1	0.001 to 0.01
COCCC(=O)N1CCN(c2cncc(Nc3cc4c(cn3)-c3cc(F)c(N5CCCC5=O)cc3OC4)c2)CC1 [Example 171, 1-(9-fluoro-3-((5-(4-(3-methoxypropanoyl)piperazin-1-yl)pyridin-3-yl)amino)-5H-chromeno[4,3-c]pyridin-8-yl)pyrrolidin-2-one]	0.01 to 0.1	0.01 to 0.1
COCCC(=O)N1CCN(c2cncc(Nc3cc4c(cn3)-c3cc(F)c(N5CCCC5=O)cc3OC4C)c2)CC1 (stereo not drawn) [Example 172, 1-(9-fluoro-3-((5-(4-(3-methoxypropanoyl)piperazin-1-yl)pyridin-3-yl)amino)-5-methyl-5H-chromeno[4,3-c]pyridin-8-yl)pyrrolidin-2-one]	0.01 to 0.1	0.001 to 0.01
CC1Oc2cc(N3CCCC3=O)ccc2-c2cnc(Nc3cncc(NC(=O)c4ccc(NC(=O)/C=C/CN(C)C)cc4)c3)cc21 (stereo not drawn) [Example 174, (E)-4-(4-(dimethylamino)but-2-enamido)-N-(5-((5-methyl-8-(2-oxopyrrolidin-1-yl)-5H-chromeno[4,3-c]pyridin-3-yl)amino)pyridin-3-yl)benzamide]	0.01 to 0.1	0.001 to 0.01
CC1Oc2cc(N3CCCC3=O)ccc2-c2cnc(Nc3cncc(NC(=O)CCc4cccc(NC(=O)/C=C/CN(C)C)c4)c3)cc21 (stereo not drawn) [Example 176, (E)-4-(dimethylamino)-N-(3-(3-((5-((5-methyl-8-(2-oxopyrrolidin-1-yl)-5H-chromeno[4,3-c]pyridin-3-yl)amino)pyridin-3-yl)amino)-3-oxopropyl)phenyl)but-2-enamide]	0.01 to 0.1	0.001 to 0.01
CC1Oc2cc(N3CCCC3=O)ccc2-c2cnc(Nc3cncc(NC(=O)CCc4cccc(NC(=O)CCCN(C)C)c4)c3)cc21 (stereo not drawn) [Example 177, 4-(dimethylamino)-N-(3-(3-((5-((5-methyl-8-(2-oxopyrrolidin-1-yl)-5H-chromeno[4,3-c]pyridin-3-yl)amino)pyridin-3-yl)amino)-3-oxopropyl)phenyl)butanamide]	0.001 to 0.01	0.001 to 0.01
CC1Oc2cc(N3CCCC3=O)ccc2-c2cnc(Nc3cncc(N4CCN(Cc5cccc(NC(=O)CNC(=O)/C=C/CN(C)C)c5)C4=O)c3)cc21 (stereo not drawn) [Example 178, (E)-4-(dimethylamino)-N-(2-((3-((3-(5-((5-methyl-8-(2-oxopyrrolidin-1-yl)-5H-chromeno[4,3-c]pyridin-3-yl)amino)pyridin-3-yl)-2-oxoimidazolidin-1-yl)methyl)phenyl)amino)-2-oxoethyl)but-2-enamide]	0.001 to 0.01	≤ 0.001
CC1Oc2cc(N3CCCC3=O)ccc2-c2cnc(Nc3cnc4c(c3)N3C(=O)CC[C@@H]3CO4)cc21 (stereo partly drawn) [Example 180, (6aR)-2-((5-methyl-8-(2-oxopyrrolidin-1-yl)-5H-chromeno[4,3-c]pyridin-3-yl)amino)-6,6a,7,8-tetrahydro-9H-pyrido[2,3-b]pyrrolo[1,2-d][1,4]oxazin-9-one]	0.001 to 0.01	≤ 0.001
